The values below come from patent publication US9139615B2, “High-affinity, dimeric inhibitors of PSD-95 as efficient neuroprotectants against ischemic brain damage and for treatment of pain” (University of Copenhagen, priority 2011, dated 2015).

What all share (type): in vivo, mice
Data set [1] deals with CFA-induced mechanical allodynia/hyperalgesia. The data set is described as follows: Complete Freund's adjuvant (CFA) inflammatory pain, von Frey test. To be noted: for CFA-induced hyperalgesia: 0.1 mg/kg, given simultaneously with CFA.
The subject of the next data set is attention. In words: Modified Y-maze test of attention. The note with it: 0.05 and 0.1 mg/kg. On the procedure:
Testing was carried out in a clear Plexiglass maze composed of 2 perpendicular arms connected to a runway. The 2 arms (available for exploration) and runway were 50 cm long and 8 cm wide, surrounded by clear Plexi-glass walls 30 cm high. Each arm met at a central platform equipped with black removable partitions, enabling arms to be opened and closed as desired. The whole maze was enclosed in a triangular black Plexiglass box (1×1×1 m). The walls of this outer box surrounding each exploration arm were covered with distinct optical cues, e.g., white horizontal or vertical lines. […] The cumulative time spent in each arm was recorded during this test session by an automated video tracking system (Ethovision, Noldus). A discrimination index (DI) was calculated for each mouse, defined as the difference in time spent in the novel and the familiar arm divided by the total time spent in the novel and the familiar arm during phase 2 testing, i.e. DI=(novel−familiar)/(novel+familiar).
Cognitive data: In the social transmission of food preference test, the preference for the cued food was expressed as a discrimination index, DI=(cued−novel)/(cued+novel). In the modified Y-maze, the preference for the novel arm was expressed as a discrimination index, DI=(time in novel−time in familiar)/(time in novel+time in familiar). […]

For a further data set, the system named is motor performance. In words: Rotarod test of motor performance (side effects). The note with it: 0.1 mg/kg, at 15, 30, 45 and 60 min. On the procedure: Motor function was evaluated using an accelerating rotarod (MedAssociates, Inc., VT, USA). The rotarod (3.2 cm diameter) speed was increased from 4 to 40 rpm over a 300 s period with the minimum time possible to spend on the rod designated as 0 s and the maximum cut-off time set at 310 s. Each mouse was tested immediately prior to drug treatment (t=0), and again 15, 30, 45 and 60 minutes after drug treatment. When an animal fell off the rotating drum, a photobeam was automatically broken to record the amount of time spent on the rotating rod.
Motor performance: In the rotarod test, treatment effect on motor coordination was analysed using a two-way RM ANOVA, with treatment as the independent factor and time as repeated measure. Planned comparisons procedure was used to assess treatment effects over time.

Data set [2] relates to long-term reference memory. In words: Social transmission of food preference (STFP) test. To be noted: 0.1 mg/kg (dose reducing hyperalgesia). On the procedure: STFP was conducted in two phases. […] A minimum of 2 and a maximum of 5 licking/sniffing interactions were set as criteria for appropriate acquisition of the odour cue. […] Second phase: following a 24-hour retention interval, the observer mice were placed individually in cages containing two trays of crushed food scented with cinnamon or cocoa, respectively. The amount eaten from the cued food over the novel food is taken as an index of memory for the previously cued food. […] Yet, experiments were designed in a balanced fashion to ensure that an equal number of mice within each treatment group were cued with cinnamon and cocoa, respectively.
Cognitive data: In the social transmission of food preference test, the preference for the cued food was expressed as a discrimination index, DI=(cued−novel)/(cued+novel). In the modified Y-maze, the preference for the novel arm was expressed as a discrimination index, DI=(time in novel−time in familiar)/(time in novel+time in familiar). STFP and Y-maze data were analysed by one-way ANOVA followed by Planned Comparisons was performed to assess treatment effects on the discrimination index.

Structures are written as SMILES. “Also recorded” adds a separate entry of the source.

For `C[C@]12N[C@H](Cc3ccccc31)c1ccccc12` [MK-801], the CFA-induced hyperalgesia result in data set [1] (after 1 hour) was “significantly reversed the CFA-induced hyperalgesia”; in data set [1] (after 24 hours) it was “significant reversal was still observed”. In addition, in data set [1] (administered concurrently with CFA, 1 hour and 24 hours after treatment), the CFA-induced mechanical hyperalgesia result is listed as “prevented the development of CFA-induced mechanical hyperalgesia”. The “discrimination index, modified Y-maze” value in the data set on attention was “induced cognitive deficits; also recorded: discrimination index was reduced”. The “motor performance, time on the rotarod” value in the data set on motor performance is “motor deficits; also recorded: significantly decreased time on the rotarod”. Moreover, the “discrimination index, social transmission of food preference” value in data set [2] is on record as “induced cognitive deficits; also recorded: significantly reduced the discrimination index”.
